Counter-ions that a name gives are not always drawn.
Tests used:
SB.msgc-1 = assay: AC50 for growth inhibition (viability) (log10 M); higher = less potent; conditions: SB.msgc-1 (sporadic gastric cancer)
Outline: (§1)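 Values are log half-maximal activity concentrations from four-parameter fits of DMSO-normalised viability, restricted to high-quality curve classes. Patient-derived gastric cancer cells, hereditary or sporadic, were plated at 500 cells per 1536 well in 5 μL medium and given 23 nL compound in DMSO by pintool across 11 threefold dilutions, the top final concentration being 46 μM. Viability was read by ViewLux luminescence after 48 h and a 30 min CellTiter-Glo step at room temperature.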

SB.mhdgc-1 = assay: as above; conditions: SB.mhdgc-1 (hereditary c.1380delA CDH1 gastric cancer)
Outline: as §1

| Structure (SMILES) | AC50 for growth inhibition (log10 M) (SB.msgc-1) | AC50 for growth inhibition (log10 M) (SB.mhdgc-1) |
| --- | --- | --- |
| COc1cc(C(C)C)c(Oc2cnc(NC(CO)CO)nc2N)cc1I [Ro 51] | -6.18 | -6.63 |
| C[N]1C=C(C2=C1C=CC=C2)\C3=C(\C(=O)NC3=O)C4=C5CC(CN)CC[N]5C6=C4C=CC=C6 (configuration not stated) [Ro-31-8425] | -4.78 | -4.88 |
| CCCn1c(=O)c2[nH]c(C34CC5CC3C[C@@H](C5)C4)nc2n(CCC)c1=O [Rolofylline] | -4.83 | -4.68 |
| C/C=C1\NC(=O)[C@H]2CSSCC/C=C\[C@H](CC(=O)N[C@H](C(C)C)C(=O)N2)OC(=O)[C@H](C(C)C)NC1=O [Romidepsin] | -7.83 | -7.63 |
| C=C(C)[C@H]1Cc2c(ccc3c2O[C@@H]2COc4cc(OC)c(OC)cc4[C@@H]2C3=O)O1 [Rotenone] | -6.33 | -5.38 |
| COc1cc2c(cc1OC)[C@@H]1Cc3ccc(OC)c(OC)c3CN1CC2 [Rotundine] | -4.73 | -5.28 |
| CC(C)Nc1cc(C(F)(F)F)cc2nc(NC(=O)c3cccnc3)nn12 [S-99] | -5.08 | -5.28 |
| COc1ccc([C@@H]2CNC(=O)C2)cc1OC1CCCC1 [S-(+)-Rolipram] | -5.58 | -5.58 |
| CNC1CCC(N(Cc2cccc(-c3ccncc3)c2)C(=O)c2sc3ccccc3c2Cl)CC1 (configuration not stated) [SAG] | -4.88 | -4.93 |
| CCOc1cc(C(=O)Nc2ccc(Cl)c(-c3nc4ccccc4[nH]3)c2)cc(OCC)c1OCC [SANT-2] | -5.18 | -5.93 |
| CC(C)N(CCCNC(=O)Nc1ccc(C(C)(C)C)cc1)C[C@H]1O[C@@H](n2cc(Br)c3c(N)ncnc32)[C@H](O)[C@@H]1O [SGC0946] | -4.53 | -4.68 |
| CN1CCC(CNc2ccc3ncc(-c4cccc(OC(F)(F)F)c4)n3n2)CC1 [SGI-1776] | -4.83 | -5.03 |
| Cn1cc(-c2ccc3nnc(Sc4ccc5ncccc5c4)n3n2)cn1 [SGX-523] | -4.78 | -5.13 |
| N#C/C(=C(/N)Sc1ccc(N)cc1)c1ccccc1C(F)(F)F [SL-327] | -5.13 | -5.28 |
| CN[C@@H](C)C(=O)N[C@H]1CCCC[C@H]2CC[C@@H](C(=O)N[C@@H](c3ccccc3)c3cn(CCCCc4ccc(CCCCn5cc([C@@H](NC(=O)[C@@H]6CC[C@@H]7CCCC[C@H](NC(=O)[C@H](C)NC)C(=O)N76)c6ccccc6)nn5)cc4)nn3)N2C1=O [SM-164] | -4.68 | -5.88 |
| CCC1=C2CN3C(=O)\C4=C(/C=C3/C2=NC5=CC=C(O)C=C15)[C@@](O)(CC)C(=O)OC4 [SN-38] | -8.08 | -8.48 |
| CC1(C)CC(=O)c2c(C(F)(F)F)nn(-c3ccc(C(N)=O)c(NC4CCC(O)CC4)c3)c2C1 (configuration not stated) [SNX-2112] | -7.43 | -6.48 |
| CC1(C)CC(=O)c2c(C(F)(F)F)nn(-c3ccc(C(N)=O)c(NC4CCC(OC(=O)CN)CC4)c3)c2C1 (configuration not stated) [SNX-5422] | -7.13 | -6.58 |
| Cc1ccc(-c2ncn(-c3ccc(Nc4nccc(-c5cccc(N6CCOCC6)c5)n4)cc3)n2)cn1 [SR-3306] | -7.13 | -6.18 |
| Cc1c[nH]c(/C=C2\C(=O)Nc3ccccc32)c1CCC(=O)O [SU-5402] | -4.73 | -4.68 |
| CN(C)[S+](=O)([O-])c1ccc2c(c1)C(=Cc1cc3c([nH]1)CCCC3)C(=O)N2 [SU-6656] | -5.43 | -5.28 |
| C[C@H](NCc1ccc(OCc2cccc(F)c2)cc1)C(N)=O [Safinamide mesilate] | -4.78 | -5.08 |
| CCC(C1CCC(C)C(O1)C(C)C(O)C(C)C(=O)C(CC)C2OC\3(O[C@]4(CC[C@@](C)(O4)C5CC[C@@](O)(CC)C(C)O5)C(O)\C=C3)C(C)CC2C)C([O-])=O (some centres not stated) [Salinomycin] | -6.58 | -6.28 |
| CC(C)=CCC/C(C)=C/CC/C(C)=C/CSc1ccccc1C(=O)O [Salirasib] | -5.58 | -6.43 |
| CN1CCN(CCOc2cc(OC3CCOCC3)c3c(Nc4c(Cl)ccc5c4OCO5)ncnc3c2)CC1 [Saracatinib] | -5.88 | -4.63 |
| CC1(C)CCC[C@]2(C)[C@H]3CC(=O)O[C@]3(C)CC[C@@H]12 [Sclareolide] | -4.78 | -5.03 |

| Structure (SMILES) | AC50 for growth inhibition (log10 M) (SB.msgc-1) | AC50 for growth inhibition (log10 M) (SB.mhdgc-1) |
| --- | --- | --- |
| CN1[C@@H]2CC(O)C[C@H]1[C@@H]1O[C@@H]12 (some centres not stated) [Scopine] | -4.83 | -4.78 |
| COc1cc(C[C@@H](CO)[C@H](CO)Cc2ccc(O)c(OC)c2)ccc1O [Secoisolariciresinol] | -6.63 | -6.38 |
| Cn1cnc2c(F)c(Nc3ccc(Br)cc3Cl)c(C(=O)NOCCO)cc21 [Selumetinib] | -5.18 | -5.38 |
| C=C1/C(=C/C=C2\CCCC3(C)[C@@H]([C@H](C)/C=C/C=C/C(O)(CC)CC)CC[C@@H]23)C[C@@H](O)C[C@@H]1O (some centres not stated) [Seocalcitol] | -4.78 | -4.83 |
| COCCn1c2c([n+](Cc3cnccn3)c1C)C(=O)c1ccccc1C2=O [Sepantronium bromide] | -7.73 | -7.33 |
| c1ccc2c(CCNc3ccc(Nc4ccncc4)cc3)c[nH]c2c1 [Serdemetan] | -4.73 | -5.63 |
| CC(C)=CC[C@@H](O)C/1=C/C(=O)C2=C(O)C=CC(=C2C1=O)O [Shikonin] | -5.83 | -6.13 |
| COC/1=C/[C@@H]2[C@@H]3CC4=C(C(=C(OC)C=C4)O)[C@]2(CCN3C)CC1=O [Sinomenine] | -6.03 | -6.33 |
| CNC(=O)c1cc(Oc2ccc(NC(=O)Nc3ccc(Cl)c(C(F)(F)F)c3)cc2)ccn1 [Sorafenib] | -4.98 | -5.08 |
| CC(C)NCC(O)c1ccc(NS(C)(=O)=O)cc1 (configuration not stated) [Sotalol] | -5.03 | -4.83 |
| CN[C@@H]1[C@H](O)[C@H](NC)[C@H]2O[C@@]3(O)C(=O)C[C@@H](C)O[C@H]3O[C@@H]2[C@H]1O [Spectinomycin hydrochloride] | -6.08 | -5.93 |
| C[C@]12Cc3cn[nH]c3C[C@@H]1CC[C@@H]1[C@@H]2CC[C@@]2(C)[C@H]1CC[C@]2(C)O [Stanozolol] | -5.63 | -5.98 |
| CN1CCN(CCCN2c3ccccc3Sc3ccc(C(F)(F)F)cc32)CC1 [Stelazine  trifluoperzine] | -5.08 | -5.63 |
| CC(C)n1cnc2c(NCCc3ccc(O)cc3)nc(-c3csc4ccccc34)nc21 [StemRegenin 1] | -4.88 | -5.78 |
| CC1=C(CC(=O)O)c2cc(F)ccc2/C1=C\c1ccc([S+](C)[O-])cc1 (configuration not stated) [Sulindac] | -5.53 | -5.93 |
| CCN(CC)CCNC(=O)c1c(C)[nH]c(/C=C2\C(=O)Nc3ccc(F)cc32)c1C [Sunitinib malate] | -4.42 | -5.32 |
| CC(C)(O)CC(=O)NCCn1ccc2ncnc(Nc3ccc(Oc4cccc(C(F)(F)F)c4)c(Cl)c3)c21 [TAK-285] | -6.88 | -5.43 |
| N#Cc1c(NC(=O)c2cccc3ccccc23)sc2c1CCCC2 [TCS JNK 5a] | -5.98 | -5.88 |
| Oc1ccc(-c2ccc(-c3cc(Nc4cccc(CNC5CC5)c4)[nH]n3)cc2)c(O)c1 [TCS-2312] | -5.03 | -6.28 |
| Cc1cnc(Nc2ccc(CN3CCOCC3)cc2)nc1Nc1cccc([S+](=O)([O-])NC(C)(C)C)c1 [TG-46] | -4.83 | -4.68 |
| NC(=O)Nc1sc(-c2ccc(F)cc2)cc1C(N)=O [TPCA-1] | -5.48 | -5.93 |
| Cc1ccc([S+](=O)([O-])N[C@@H](Cc2ccccc2)C(=O)CCl)cc1 [TPCK] | -4.73 | -4.78 |
| CC(C)c1ccccc1Cc1cc(C(=O)Nc2ccc([S+](=O)([O-])c3ccccc3C(C)(C)C)cc2)c(O)c(O)c1O [TW-37] | -5.13 | -4.83 |
| CC/C(=C(\c1ccccc1)c1ccc(OCCN(C)C)cc1)c1ccccc1 [Tamoxifen] | -4.73 | -4.68 |
| C=CCNC1=C2C[C@@H](C)C[C@H](OC)[C@H](O)[C@@H](C)/C=C(\C)[C@H](OC(N)=O)[C@@H](OC)/C=C\C=C(/C)C(=O)NC(=CC1=O)C2=O [Tanespimycin] | -7.53 | -7.28 |
